Test results: PubChem BioAssay (NCI)
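GI50 is the concentration that inhibits growth by half. TGI marks complete inhibition of growth.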

Tests used:
Assay in all cases: growth of human tumour cells (NCI), 384-well format; in the data active = GI50 below about 0.43 µM; inactive = the rest
[1] = test system: SK-MEL-2 melanoma
[2] = test system: A498 renal
[3] = test system: LOX IMVI melanoma
[4] = test system: EKVX NSCLC
[5] = test system: UACC-257 melanoma
[6] = test system: SF-268 CNS
[7] = test system: NCI-H226 lung
[8] = test system: OVCAR-4 ovarian
[9] = test system: HCT-15 colon
[10] = test system: UACC-62 melanoma
[11] = test system: NCI-H322M lung
[12] = test system: MOLT-4 leukemia
[13] = test system: OVCAR-5 ovarian
[14] = test system: SF-295 CNS
[15] = test system: SR leukemia
[16] = test system: SN12C renal
[17] = test system: HL-60(TB) leukemia
[18] = test system: U251 glioblastoma
[19] = test system: SK-MEL-28 melanoma
[20] = test system: HS 578T breast
[21] = test system: BT-549 breast
[22] = test system: NCI/ADR-RES ovarian
[23] = test system: HT29 colon
[24] = test system: RXF 393 renal
[25] = test system: HCT-116 colon
[26] = test system: MCF7 breast
[27] = test system: DU-145 prostate
[28] = test system: ACHN renal
[29] = test system: MDA-MB-231 breast
[30] = test system: CCRF-CEM leukemia
[31] = test system: IGROV1 ovarian
[32] = test system: NCI-H522 lung
[33] = test system: COLO 205 colon
[34] = test system: SF-539 CNS
[35] = test system: UO-31 renal
[36] = test system: HOP-92 NSCLC
[37] = test system: NCI-H460 NSCLC
[38] = test system: HOP-62 NSCLC
[39] = test system: MALME-3M melanoma
[40] = test system: KM12 colon
[41] = test system: SW-620 colon
[42] = test system: 786-0 renal
[43] = test system: M14 melanoma
[44] = test system: MDA-MB-468 breast
[45] = test system: PC-3 prostate
[46] = test system: CAKI-1 renal
[47] = test system: SNB-19 CNS
[48] = test system: SNB-75 CNS
[49] = test system: A549 NSCLC
[50] = test system: T-47D breast
[51] = test system: K-562 leukemia
[52] = test system: SK-OV-3 ovarian
[53] = test system: SK-MEL-5 melanoma
[54] = test system: TK-10 renal
[55] = test system: NCI-H23 lung
[56] = test system: HCC-2998 colon

Cc1cncc2cccc(S(=O)(=O)N3CCCNC[C@@H]3C)c12
68.2 µM: TGI [7]
50.2 µM: TGI [10]
61.1 µM: TGI [16]
4.55 µM: TGI [20]
81.2 µM: TGI [40]
11 µM: TGI [33]
7.48 µM: TGI [21]
62.4 µM: TGI [38]
24 µM: TGI [35]
24.7 µM: TGI [46]
10.7 µM: TGI [41]
48 µM: TGI [25]
5.04 µM: TGI [32]
67.8 µM: TGI [37]
inactive: GI50 [1] 7.56 µM | GI50 [2] > 100 µM | GI50 [3] 12.1 µM | GI50 [4] 16.3 µM | GI50 [5] > 100 µM | GI50 [6] 11.7 µM | GI50 [7] 13.2 µM | GI50 [8] > 100 µM | GI50 [9] 11.2 µM | GI50 [10] 2.04 µM | GI50 [11] 87.7 µM | GI50 [12] 0.492 µM | GI50 [13] 25.5 µM | GI50 [14] 4.35 µM | GI50 [16] 15.1 µM | GI50 [17] 1.49 µM | GI50 [18] 5.17 µM | GI50 [19] > 100 µM | GI50 [20] 1.89 µM | GI50 [21] 1.8 µM | GI50 [22] 3.63 µM | GI50 [23] 4.96 µM | GI50 [24] 5.06 µM | GI50 [25] 7.52 µM | GI50 [26] 28 µM | GI50 [27] 5.94 µM | GI50 [28] 25.9 µM | GI50 [29] 14.9 µM | GI50 [30] 1.25 µM | GI50 [31] 7.65 µM | GI50 [32] 1.71 µM | GI50 [33] 3.03 µM | GI50 [34] 4.32 µM | GI50 [35] 10.6 µM | GI50 [36] 10.3 µM | GI50 [37] 2.54 µM | GI50 [38] 11.3 µM | GI50 [39] > 100 µM | GI50 [40] 16.4 µM | GI50 [41] 2.74 µM | GI50 [42] 13.6 µM | GI50 [43] > 100 µM | GI50 [44] 1.02 µM | GI50 [45] 8.81 µM | GI50 [46] 7.51 µM | GI50 [47] 8.41 µM | GI50 [48] 1.66 µM | GI50 [49] 11.2 µM | GI50 [50] > 100 µM | GI50 [51] 0.537 µM | GI50 [52] 18.5 µM | GI50 [53] 5.64 µM | GI50 [54] 10.1 µM | GI50 [55] 10.8 µM | GI50 [56] 42.4 µM
52 µM: TGI [55]
2.28 µM: TGI [44]
10 µM: TGI [48]
22.6 µM: TGI [24]
3.09 µM: TGI [17]
58.1 µM: TGI [31]
87.3 µM: TGI [6]
43.8 µM: TGI [29]
42.4 µM: TGI [1]
> 100 µM: TGI [2] | TGI [4] | TGI [5] | TGI [8] | TGI [9] | TGI [11] | TGI [13] | TGI [14] | TGI [18] | TGI [19] | TGI [22] | TGI [23] | TGI [26] | TGI [27] | TGI [28] | TGI [39] | TGI [42] | TGI [43] | TGI [45] | TGI [47] | TGI [50] | TGI [51] | TGI [52] | TGI [53] | TGI [56]
37.3 µM: TGI [54]
20.1 µM: TGI [34]
49.4 µM: TGI [49]
31.8 µM: TGI [3]
active: GI50 [15] 0.227 µM
0.389 µM: TGI [15]
2.57 µM: TGI [30]
1.65 µM: TGI [12]
36.1 µM: TGI [36]
